Source: PubChem BioAssay AID1963844 (Molecular Pharmacology Branch, DTP, NCI, 2024)

System: 422866-222-R5-J1-PDC complex spheroid viability
Assay: Anticancer human tumor 422866-222-R5-J1-PDC patient-derived pancreatic adenocarcinoma cell line growth inhibition [POLQ]
Conditions: for IC50: curve of first compound; for viability, T/C: stronger effect = lower value
In short: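 Complex spheroid viability model combining PDC tumour cells with endothelial (HUVEC) and MSC stromal cells. Novobiocin, ART-558 or RP6685 were tested singly and in combination with standard and investigational anticancer drugs. Each was titrated in half-log steps from near clinical Cmax, or from 10 microM where Cmax was unknown.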

[1] = second compound 0.0316 µM, first compound 0.0316 µM
[2] = second compound 0.0316 µM, first compound 0.1 µM
[3] = second compound 0.0316 µM, first compound 0.316 µM
[4] = second compound 0.0316 µM, first compound 1 µM
[5] = second compound 0.0316 µM, first compound 3.16 µM
[6] = second compound 0.0316 µM, first compound 10 µM
[7] = second compound 0.1 µM, first compound 0.0316 µM
[8] = second compound 0.1 µM, first compound 0.1 µM
[9] = second compound 0.1 µM, first compound 0.316 µM
[10] = second compound 0.1 µM, first compound 1 µM
[11] = second compound 0.1 µM, first compound 3.16 µM
[12] = second compound 0.1 µM, first compound 10 µM
[13] = second compound 0.316 µM, first compound 0.0316 µM
[14] = second compound 0.316 µM, first compound 0.1 µM
[15] = second compound 0.316 µM, first compound 0.316 µM
[16] = second compound 0.316 µM, first compound 1 µM
[17] = second compound 0.316 µM, first compound 3.16 µM
[18] = second compound 0.316 µM, first compound 10 µM
[19] = second compound 1 µM, first compound 0.0316 µM
[20] = second compound 1 µM, first compound 0.1 µM
[21] = second compound 1 µM, first compound 0.316 µM
[22] = second compound 1 µM, first compound 1 µM
[23] = second compound 1 µM, first compound 3.16 µM
[24] = second compound 1 µM, first compound 10 µM
[25] = second compound 3.16 µM, first compound 0.0316 µM
[26] = second compound 3.16 µM, first compound 0.1 µM
[27] = second compound 3.16 µM, first compound 0.316 µM
[28] = second compound 3.16 µM, first compound 1 µM
[29] = second compound 3.16 µM, first compound 3.16 µM
[30] = second compound 3.16 µM, first compound 10 µM
[31] = second compound 10 µM, first compound 0.0316 µM
[32] = second compound 10 µM, first compound 0.1 µM
[33] = second compound 10 µM, first compound 0.316 µM
[34] = second compound 10 µM, first compound 1 µM
[35] = second compound 10 µM, first compound 3.16 µM
[36] = second compound 10 µM, first compound 10 µM
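Further: spheroids exposed to compounds for one week before readout.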
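Wherever viability, T/C is given: percent of DMSO vehicle wells luminescence so 100% = untreated viability.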

For CC1COCCN1c1cc(C2(S(C)(=N)=O)CC2)nc(-c2ccnc3[nH]ccc23)n1 (stereo not drawn) + Cc1cccc(N(C)C(=O)C2C(O)CCN2c2nc(C)cc(C(F)(F)F)c2C#N)c1, the IC50 (second compound 0.0316 µM) was greater than 10 µM, the IC50 (second compound 0.1 µM) was 2.93 µM and the IC50 (second compound 0.316 µM) was 3.36 µM. It also gave an IC50 (second compound 1 µM) of 4.21 µM, an IC50 (second compound 3.16 µM) of 5.46 µM and an IC50 (second compound 10 µM) of 4.41 µM. The viability, T/C [1] was 92.5%, the viability, T/C [2] was 93.2% and the viability, T/C [3] was 98.9%. The viability, T/C [4] was 70.1%, the viability, T/C [5] was 50.9% and the viability, T/C [6] was 50.5%. It also gave a viability, T/C [7] of 101%, a viability, T/C [8] of 121% and a viability, T/C [9] of 98.9%. It also gave a viability, T/C [10] of 74.4%, a viability, T/C [11] of 45.8% and a viability, T/C [12] of 46.3%. For the same compound, the viability, T/C [13] was 110%, the viability, T/C [14] was 110% and the viability, T/C [15] was 90.3%. The viability, T/C [16] was 83.2%, the viability, T/C [17] was 47.1% and the viability, T/C [18] was 33.8%. The viability, T/C [19] was 108%, the viability, T/C [20] was 97.6% and the viability, T/C [21] was 91.5%. The viability, T/C [22] was 76.8%, the viability, T/C [23] was 47.5% and the viability, T/C [24] was 45.8%. The viability, T/C [25] was 103%, the viability, T/C [26] was 103% and the viability, T/C [27] was 90.6%. For the same compound, the viability, T/C [28] was 73.8%, the viability, T/C [29] was 60.4% and the viability, T/C [30] was 40.3%. It also gave a viability, T/C [31] of 100%, a viability, T/C [32] of 82% and a viability, T/C [33] of 93.1%. For the same compound, the viability, T/C [34] was 59.2%, the viability, T/C [35] was 59.5% and the viability, T/C [36] was 37.4%.

For CC1COCCN1c1cc(C2(O)CC3CCC(C2)O3)c2cnn(-c3ccn[nH]3)c2n1 (stereo not drawn) + Nc1ccc(C#CCN(C(=O)Cc2ncc(C(F)(F)F)cc2C(F)(F)F)c2ccc(F)cc2)nn1, the IC50 (second compound 0.0316 µM) was greater than 10 µM, the IC50 (second compound 0.1 µM) was less than 0.0316 µM and the IC50 (second compound 0.316 µM) was less than 0.0316 µM. It also gave an IC50 (second compound 1 µM) greater than 10 µM, an IC50 (second compound 3.16 µM) of 10 µM and an IC50 (second compound 10 µM) of less than 0.0316 µM. For the same compound, the viability, T/C [1] was 72%, the viability, T/C [2] was 39.4% and the viability, T/C [3] was 40.7%. It also gave a viability, T/C [4] of 74.5%, a viability, T/C [5] of 73.5% and a viability, T/C [6] of 61.1%. For the same compound, the viability, T/C [7] was 58.2%, the viability, T/C [8] was 39.4% and the viability, T/C [9] was 48.5%. It also gave a viability, T/C [10] of 71.6%, a viability, T/C [11] of 83.6% and a viability, T/C [12] of 63.8%. The viability, T/C [13] was 61.3%, the viability, T/C [14] was 37% and the viability, T/C [15] was 42.2%. The viability, T/C [16] was 74.8%, the viability, T/C [17] was 73.8% and the viability, T/C [18] was 59.9%. It also gave a viability, T/C [19] of 64.3%, a viability, T/C [20] of 39.5% and a viability, T/C [21] of 37.3%. It also gave a viability, T/C [22] of 71.4%, a viability, T/C [23] of 65.5% and a viability, T/C [24] of 57.9%. The viability, T/C [25] was 97.4%, the viability, T/C [26] was 38.7% and the viability, T/C [27] was 36.9%. For the same compound, the viability, T/C [28] was 77.2%, the viability, T/C [29] was 63.2% and the viability, T/C [30] was 69%. The viability, T/C [31] was 60.7%, the viability, T/C [32] was 41.5% and the viability, T/C [33] was 47.1%. For the same compound, the viability, T/C [34] was 83.8%, the viability, T/C [35] was 65.3% and the viability, T/C [36] was 63.4%.

CC1COCCN1c1cc(-c2ccnn2C)c2ccnc(-c3ccn[nH]3)c2n1 (stereo not drawn) + Cc1cccc(N(C)C(=O)C2C(O)CCN2c2nc(C)cc(C(F)(F)F)c2C#N)c1 gave an IC50 (second compound 0.0316 µM) of 0.0316 µM, an IC50 (second compound 0.1 µM) greater than 10 µM and an IC50 (second compound 0.316 µM) greater than 10 µM. It also gave an IC50 (second compound 1 µM) greater than 10 µM, an IC50 (second compound 3.16 µM) of 0.0316 µM and an IC50 (second compound 10 µM) of 0.0316 µM. The viability, T/C [1] was 82.3%, the viability, T/C [2] was 55.7% and the viability, T/C [3] was 49.3%. It also gave a viability, T/C [4] of 37.8%, a viability, T/C [5] of 72.3% and a viability, T/C [6] of 83.1%. The viability, T/C [7] was 87%, the viability, T/C [8] was 55.3% and the viability, T/C [9] was 49.1%. For the same compound, the viability, T/C [10] was 44.5%, the viability, T/C [11] was 65.4% and the viability, T/C [12] was 73%. The viability, T/C [13] was 91.8%, the viability, T/C [14] was 59.6% and the viability, T/C [15] was 43.9%. For the same compound, the viability, T/C [16] was 38.6%, the viability, T/C [17] was 62.4% and the viability, T/C [18] was 79.8%. It also gave a viability, T/C [19] of 77.5%, a viability, T/C [20] of 73.6% and a viability, T/C [21] of 34%. For the same compound, the viability, T/C [22] was 42.5%, the viability, T/C [23] was 73.7% and the viability, T/C [24] was 73.7%. For the same compound, the viability, T/C [25] was 75.7%, the viability, T/C [26] was 55.8% and the viability, T/C [27] was 49.5%. For the same compound, the viability, T/C [28] was 43.7%, the viability, T/C [29] was 74.3% and the viability, T/C [30] was 85%. It also gave a viability, T/C [31] of 74.3%, a viability, T/C [32] of 58.2% and a viability, T/C [33] of 46.7%. The viability, T/C [34] was 36.5%, the viability, T/C [35] was 70.3% and the viability, T/C [36] was 94.8%.

For CCCS(=O)(=O)Nc1ccc(F)c(C(=O)c2c[nH]c3ncc(-c4ccc(Cl)cc4)cc23)c1F + Cc1cccc(N(C)C(=O)C2C(O)CCN2c2nc(C)cc(C(F)(F)F)c2C#N)c1, the IC50 (second compound 0.0316 µM) was greater than 10 µM, the IC50 (second compound 0.1 µM) was greater than 10 µM and the IC50 (second compound 0.316 µM) was greater than 10 µM. For the same compound, the IC50 (second compound 1 µM) was greater than 10 µM, the IC50 (second compound 3.16 µM) was greater than 10 µM and the IC50 (second compound 10 µM) was greater than 10 µM. It also gave a viability, T/C [1] of 92.3%, a viability, T/C [2] of 115% and a viability, T/C [3] of 122%. The viability, T/C [4] was 156%, the viability, T/C [5] was 214% and the viability, T/C [6] was 102%. It also gave a viability, T/C [7] of 93%, a viability, T/C [8] of 99.1% and a viability, T/C [9] of 111%. It also gave a viability, T/C [10] of 138%, a viability, T/C [11] of 200% and a viability, T/C [12] of 102%. For the same compound, the viability, T/C [13] was 92.6%, the viability, T/C [14] was 105% and the viability, T/C [15] was 135%. It also gave a viability, T/C [16] of 164%, a viability, T/C [17] of 143% and a viability, T/C [18] of 94.9%. For the same compound, the viability, T/C [19] was 98.5%, the viability, T/C [20] was 104% and the viability, T/C [21] was 124%. The viability, T/C [22] was 145%, the viability, T/C [23] was 192% and the viability, T/C [24] was 94.8%. It also gave a viability, T/C [25] of 99.4%, a viability, T/C [26] of 105% and a viability, T/C [27] of 138%. For the same compound, the viability, T/C [28] was 163%, the viability, T/C [29] was 205% and the viability, T/C [30] was 107%. For the same compound, the viability, T/C [31] was 84.4%, the viability, T/C [32] was 97% and the viability, T/C [33] was 124%. It also gave a viability, T/C [34] of 149%, a viability, T/C [35] of 188% and a viability, T/C [36] of 79.2%.
